“And” between values parts separate entries of the source, which are not always exact repeats. Equal values may be shown once.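 Cultured in 96-well plates, cells were exposed to test compound for 48 hours across five concentrations. GI50 = concentration required for 50% inhibition of growth. TGI marks complete inhibition of growth.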
What was measured:
Assay in all cases: NCI anticancer screen, dose series, 48 h
[1] = tested on: SF-295 CNS
[2] = tested on: K-562 leukemia
[3] = tested on: RXF 393 renal
[4] = tested on: IGROV1 ovarian
[5] = tested on: OVCAR-3 ovarian
[6] = tested on: SF-539 CNS
[7] = tested on: SF-268 CNS
[8] = tested on: HS 578T breast
[9] = tested on: MALME-3M melanoma
[10] = tested on: DU-145 prostate

| Compound | TGI [1] | TGI [2] | TGI [3] | TGI [4] | TGI [5] | TGI [6] | TGI [7] | TGI [8] | TGI [9] | TGI [10] | GI50 [1] | GI50 [9] | GI50 [2] | GI50 [3] | GI50 [4] | GI50 [5] | GI50 [6] | GI50 [10] | GI50 [8] | GI50 [7] |
| --- | --- | --- | --- | --- | --- | --- | --- | --- | --- | --- | --- | --- | --- | --- | --- | --- | --- | --- | --- | --- |
| CC1=NN(C(=O)Nc2ccc(Cl)cc2)C(=O)C2CCC(=O)N12 (stereo unspecified) | > 100 µM | > 100 µM | > 100 µM | > 100 µM | > 100 µM | > 100 µM | > 100 µM |  |  |  |  |  |  |  |  |  |  |  |  |  |
| Oc1ccc2ccccc2c1N=Nc1cc(Cl)ccc1Cl | 28.6 µM | > 50 µM | > 50 µM | 18.1 µM | > 50 µM |  | > 50 µM | 21.4 µM | > 50 µM |  |  |  |  |  |  |  |  |  |  |  |
| COc1cc2oc(-c3ccccc3)cc(=O)c2c(O)c1C | > 100 µM | > 100 µM |  | > 100 µM | > 100 µM | > 100 µM | > 100 µM |  | > 100 µM |  |  |  |  |  |  |  |  |  |  |  |
| O=C(O)c1ccc(C(O)(c2ccccc2)c2ccccc2)cc1 | > 100 µM | > 100 µM |  | > 100 µM | > 100 µM |  | > 100 µM | > 100 µM | > 100 µM | > 100 µM |  |  |  |  |  |  |  |  |  |  |
| N#CC1=C(N)NC(=S)NC12Nc1ccccc1S2 (stereo unspecified) | 31.7 µM | > 100 µM | > 100 µM | > 100 µM | 38.1 µM | 41.4 µM |  |  | 56.8 µM | > 100 µM | 11.5 µM | 24.2 µM | 30.3 µM | 33.8 µM | 23.3 µM | 14.6 µM | 14.7 µM | 17.2 µM |  |  |
| Cc1ccc(S(=O)(=O)N2CCN(C=S)CC2)cc1 |  | > 100 µM | > 100 µM | > 100 µM | > 100 µM | > 100 µM | > 100 µM |  | > 100 µM |  |  |  |  |  |  |  |  |  |  |  |
| O=C(OCCCl)C1OC(n2cc(F)c(=O)[nH]c2=O)CC1O (stereo unspecified) | > 100 µM | > 100 µM | > 100 µM | > 100 µM | > 100 µM | > 100 µM | > 100 µM |  | > 100 µM |  |  |  |  |  |  |  |  |  |  |  |
| O=C(Cc1nc2ccccc2o1)C(=O)Nc1cccc(Cl)c1 | > 100 µM | > 100 µM | > 100 µM | > 100 µM | > 100 µM | > 100 µM | > 100 µM |  | > 100 µM |  |  |  |  |  |  |  |  |  |  |  |
| N#CC(C#N)=C1CCOc2ccc(F)cc21 | 41 µM | > 100 µM | 33.5 µM | 57 µM | 24.2 µM | 24.9 µM | 48.4 µM | 41.6 µM |  | 34.6 µM | 16.9 µM |  | 50.4 µM | 17.4 µM | 17.4 µM | 11.9 µM | 12.4 µM | 14 µM | 0.289 µM | 14.6 µM |
| N#CCC(=O)N/N=C1/C(=O)N(c2cc(Cl)ccc2Cl)C(=O)C(=O)C1c1nc2ccccc2s1 (stereo unspecified) | > 100 µM | > 100 µM | 28.5 µM | > 100 µM | > 100 µM | > 100 µM | > 100 µM |  | > 100 µM |  |  |  |  |  |  |  |  |  |  |  |
| O=C1C(=C([O-])c2ccccc2)C(=O)c2ccccc21.O=C1C(=C([O-])c2ccccc2)C(=O)c2ccccc21.[Mn+2] | > 100 µM |  | > 100 µM | > 100 µM | > 100 µM | > 100 µM |  |  | > 100 µM |  | 74.6 µM | > 100 µM |  | 89.6 µM | > 100 µM | 40.5 µM | > 100 µM |  |  |  |
| CCn1c2ccccc2c(=O)c2c(OC)ccc(OC)c21 | > 100 µM | > 100 µM | 80.1 µM | > 100 µM | > 100 µM | > 100 µM | > 100 µM |  | > 100 µM |  |  |  |  |  |  |  |  |  |  |  |
| O=[N+]([O-])c1ccc(C(Cl)C(Cl)c2ccc(C(Cl)C(Cl)c3ccc([N+](=O)[O-])cc3[N+](=O)[O-])cc2)c([N+](=O)[O-])c1 (stereo unspecified) | 25.8 µM and 5.76 µM | 0.438 µM | 2.33 µM and 1.34 µM | 11.4 µM and 8.68 µM |  | 5.35 µM and 11.6 µM |  |  | 2.33 µM and 0.57 µM |  | 0.602 µM | 0.243 µM |  | 0.31 µM | 0.571 µM |  | 0.466 µM |  |  | 0.253 µM |
| CCCCCCn1c(SC)nc(COC(=O)NC)c1COC(=O)NC | 35.1 µM | > 100 µM |  | 30.5 µM | 33.5 µM | 32.4 µM | 30.6 µM | 40.3 µM |  | 30.1 µM |  |  |  |  |  |  |  |  |  |  |
| O=C(CCc1ccccc1)NS(=O)(=O)c1ccccc1 | > 100 µM | > 100 µM | > 100 µM | > 100 µM | > 100 µM | > 100 µM | > 100 µM |  | > 100 µM |  |  |  |  |  |  |  |  |  |  |  |
| CCC1C(C(=O)Nc2ccccc2C)=C(C)NC(C)=C1c1ccccc1C (stereo unspecified) | > 100 µM | > 100 µM | > 100 µM | > 100 µM | > 100 µM | > 100 µM | > 61.1 µM |  | > 100 µM |  |  |  |  |  |  |  |  |  |  |  |

Reference: PubChem BioAssay (NCI)
